Results reported in paper PMC6773697, “Antileukemic activity of novel adenosine derivatives” (Scientific Reports, 2019).

Assays:
[1] = system: caspase-3/7 in HL-60 cells; test: Caspase 3/7 assay, HL-60; format: cell-based, human; conditions: HL-60, 48 h
Protocol: (§1) The activities of caspases-3 and −7 were estimated with CellEvent™ Caspse-3/7 Green Detection Reagent (Thermo Fisher Scientific) according to the manufacturer’s protocol. The cells were seeded on 96-well plates (15 × 10^3/ well) and 24 h later, incubated with the appropriate drugs for 24 h or 48 h. The cells were fixed by adding a final concentration of 4% paraformaldehyde solution (10 min, room temperature). Cells were labeled with CellEvent™Caspase-3/7 Green Detection Reagent (5 µM), followed by Hoechst 33342 (5 µg/ml) for 15 minutes in complete medium3. Caspase-3/7 Green Detection Reagent was diluted into PBS with 5% FBS to avoid fluorescence background. After activation of caspase-3/7 in apoptotic cells, the DEVD peptide was cleaved, enabling the dye to bind DNA, which produced a bright, fluorogenic response with absorption/emission maxima of 502/530 nm according with manufacture protocol. Fluorescence intensity was measured using a Fluoroskan Ascent FL plate reader (Labsystem, Sweden). Cysteine protease activity was expressed as a ratio of fluorescence of the drug-treated samples to the corresponding untreated controls (taken as 100%). In some experimental variants, cells were preincubated for 1 h with VE-821 (10 µM) or Z-FA-FMK (caspas-3 inhibitor, 0.5 µM) to confirm that the fluorescence observed in both control and drug-treated cells was due to the presence of caspase-3/7 in samples. The caspase 3/7 signal was normalized to the Hoechst 33342 staining intensity to account for differences in cell seeding density (description in: Intracellular calcium assay section).

[2] = system: caspase-3/7 in THP-1 cells; test: Caspase 3/7 assay, THP-1; format: cell-based, human; conditions: THP-1, 48 h
Protocol: as §1, with “After activation of caspase-3/7 in apoptotic cells, the DEVD peptide was cleaved, enabling the dye to bind DNA, which produced a bright, fluorogenic response with absorption/emission maxima of 502/530 nm according with manufacture protocol.” left out, “The caspase 3/7 signal was normalized to the Hoechst 33342 staining intensity to account for differences in cell seeding density (description in: Intracellular calcium assay section).” left out

[3] = system: caspase-3/7 in MOLT-4 cells; test: Caspase 3/7 assay, MOLT-4; format: cell-based, human; conditions: MOLT-4, 48 h
Protocol: as §1, with “After activation of caspase-3/7 in apoptotic cells, the DEVD peptide was cleaved, enabling the dye to bind DNA, which produced a bright, fluorogenic response with absorption/emission maxima of 502/530 nm according with manufacture protocol.” left out, “The caspase 3/7 signal was normalized to the Hoechst 33342 staining intensity to account for differences in cell seeding density (description in: Intracellular calcium assay section).” left out

dCK in MOLT-4 cells = test: Deoxycytidine kinase activity, MOLT-4; format: cell-based, human; conditions: MOLT-4, 24 h incubation
Protocol: (§2) Deoxycytidine kinase activity was measured in accordance with the manufacturer’s protocol. The cells, at final concentration were plated at 1 × 10^6 cells per 24-well plates and cultured with the tested compounds for 24 h. Some cells were preincubated with an ATR kinase inhibitor (VE-821) for 1 h at 37 °C before adding the tested compounds. After drug treatment, the cells were washed with PBS and resuspended in an ice-cold cytosol extraction buffer containing 1 mM phenylmethylsulfonyl fluoride (PMSF) and a protease inhibitor cocktail. The cell lysate was centrifuged at 10,000 × g for 30 min at 4 °C. The protein concentration was determined using the Bradford method. The supernatant (cytosolic fraction) was collected and stored at −80 °C. The clarified cytoplasm extracts, dCK standards, and blank control were added to the appropriate microtiter plate wells with a biotin-conjugated polyclonal antibody prepared specifically for dCK. Avidin conjugated to horseradish peroxidase (HRP) was added to each microplate well and incubated. Then, a TMB substrate solution was added to the plate. […] The enzyme-substrate reaction was terminated by addition of a sulfuric acid solution. The color change was measured spectrophotometrically at a wavelength of 450 nm using a microplate reader (BioTek).

dCK in THP-1 cells = test: Deoxycytidine kinase activity, THP-1; format: cell-based, human; conditions: THP-1, 24 h incubation
Protocol: as §2

[4] = system: leukemic cells (HL-60, MOLT-4, THP-1); test: XTT cytotoxicity assay, leukemic cells overall; format: cell-based, human; conditions: for cytotoxicity (in words): XTT, leukemic cell lines
Protocol: (§3) The cytotoxic activity test with XTT (sodium 3′-[1-(phenylaminocarbonyl)- 3,4-tetrazolium]-bis (4-methoxy-6-nitro) benzene sulfonic acid hydrate) is a colorimetric method for determining the parameters associated with cell viability. The cytotoxicity in HL-60, THP-1, MOLT-4, and HMEC-1 cells was measured by the XTT assay. XTT is reduced to formazan by the mitochondrial respiratory chain oxidoreductase, which is active only in living cells. The formed crystals of formazan are dissolved directly in the medium. The amount of product is proportional to the number of live cells.
(§4) The IC50 parameter was determined by dividing the mean absorbance values of the drug-treated samples by those of control cells and defined as the drug concentration causing a 50% reduction of cell viability relative to the control. It was calculated using the “Ed50v10(1)” computer application. Cells were plated in 96-well plates at a density of 15 × 10^3 cells in 100 μL culture medium. Drugs were then added at a concentration range of 10 nM–10,000 nM to obtain a final volume of the mixture of 150 μL. Some cells were preincubated with an ATR kinase inhibitor (VE-821) for 1 h at 37 °C before adding the tested compounds. In this case drugs were added at a concentration range of 10 nM–300 nM. For the XTT assay, after 48 h of incubation, the plates were centrifuged at 1,500 rpm for 10 min at 4 °C, the culture medium was removed, and the cells were suspended in 100 mm^3 of HBSS (Hank’s Buffered Salt Solution) containing 140 mM NaCl, 5 mM KCl, 0.8 mM MgCl2, 1.8 mM CaCl2, 1 mM Na2HPO4, 10 mM HEPES (N- (2-hydroxyethyl) -piperazine-N′- (2-ethanesulfonic acid), and 1% glucose at pH 7.4. Then, 50 μL of XTT solution (in PBS) was added to a final concentration of […]. In addition, PMS (phenazine methosulphate) - methyl dibenzo-N-methylpyrazine sulphate (0.383 mg/cm^3) was used, which was combined with XTT solution at a ratio of 1:50. After 4 h of incubation with XTT, absorbance was measured at a wavelength λ = 450 nm and reference wavelength λ = 690 nm with a microplate reader (BioTek, Winooski, VT, USA).

dCK in HL-60 cells = test: Deoxycytidine kinase activity, HL-60; format: cell-based, human; conditions: HL-60, 24 h incubation
Protocol: as §2

THP-1 cells [5] = test: XTT cytotoxicity assay, THP-1; format: cell-based, human; conditions: Homo sapiens, THP-1; XTT, 48 h incubation, none in the picture
Protocol: as §3, §4

γH2AX in HL-60 cells = test: H2AX (phospho S139) In-Cell ELISA, HL-60; format: cell-based, human; conditions: HL-60, 48 h, versus control cells
Protocol: The level H2AX protein phosphorylated Ser139 was measured in tested leukemia cells by using of In-Cell ELISA, ICE assay kit. The cells were seeded on 96-well plates (100 × 10^3/well) and 48 h later, incubated with the appropriate compounds. In some experimental variants, cells were preincubated for 1 h with VE-821 (10 µM). The cells were fixed by adding a final concentration of 4% paraformaldehyde solution (10 min, room temperature). After 2 h of Block Solution incubation, cells were treated with a highly specific antibody. A rabbit monoclonal antibody specific to H2AX (phospho S139) was used (at 1:100, 2 h incubation). Next Secondary Antibody Solution (at 1:1000) were added to the cells. The measurements were obtained on a fluorescence plate reader at an excitation wavelength of 680 nm and emission at 694 nm. The cells were PBS washed and 100 µL of Janus Green Stain was added to each well of the plate (5 min., room temperature). The data were collected at excitation wavelength of 750 nm and emission at 800 nm channel (Fluoroskan Cary Eclipse). Antibody signal intensity was normalized to the total amount using Janus Green cell-stain.

HL-60 cells [6] = test: XTT cytotoxicity assay, HL-60; format: cell-based; conditions: Homo sapiens, 48 h incubation, none in the picture
Protocol: as §3, §4

HMEC-1 cells = test: XTT cytotoxicity assay, HMEC-1 (normal dermal endothelium); format: cell-based; conditions: Homo sapiens, 48 h incubation, none in the picture
Protocol: as §3, §4

MOLT-4 cells = test: XTT cytotoxicity assay, MOLT-4; format: cell-based, human; conditions: Homo sapiens, MOLT-4; XTT, 48 h incubation, none in the picture
Protocol: as §3, §4

THP-1 cells [7] = test: Comet assay with proteinase K post-treatment (DNA-protein cross-links), THP-1; format: cell-based, human; conditions: THP-1, 24 h
Protocol: (§5) Single cell gel electrophoresis (comet assay) was used to detect alkali labile sites, single and double DNA strand breaks, and cross-links induced by genotoxic agents. After electrophoresis and gel staining with 4,6-diamidino-2-phenylindole (DAPI), the released DNA was visible under a fluorescence microscope as a characteristic comet tail. The cells were plated on 24-well plates (20,000 cells/mL) and treated with CLA, CLA-FMOR, CLA-FPIP, or CLA-FPIR at the indicated concentrations for 2, 24, and 48 h at 37 °C. Some cells were preincubated with an ATR kinase inhibitor (VE-821) for 1 h at 37 °C before adding the tested compounds. Next, cells were collected into Eppendorf tubes and rinsed with PBS. Then, cells were suspended in 0.75% low melting point (LMP) agarose dissolved in PBS (pH 7.4) and placed on microscope slides precoated with 0.5% normal melting point (NMP) agarose. Subsequently, the slides were treated with a cooled lysis buffer (2.5 M NaCl, 100 mM EDTA, 10 mM Tris, 1% Triton X-100, pH 9.0) for 1–24 h at 4 °C. Then, slides were placed in developing buffer (300 mM NaOH, 1 mM EDTA) for 20 min. Electrophoresis was performed in […] (30 mM NaOH, 1 mM EDTA) at 29 V and 30 mA for 20 min. The samples were stained with DAPI ([…]). The slides were stored in a wet chamber at 4 °C and analyzed under a fluorescence microscope. Fifty randomly selected cells from each slide were measured using image analysis (Nikon, Japan) attached to a COHU 4910 video camera, which was equipped with a UV-1 filter block consisting of an excitation filter (359 nm) and a barrier filter (461 nm) connected to the image analysis system Lucia-Comet v. 4.51 (Czech Republic)[41]. In the samples preincubated with VE-821, the level of DNA damage associated with the ATR kinase was determined.
Because cross-links can be undetectable in the alkaline comet assay, a variant of this method including post-treatment with proteinase K (Cat no: P2308) was used. […]

HL-60 cells [8] = test: Comet assay with proteinase K post-treatment (DNA-protein cross-links), HL-60; format: cell-based, human; conditions: HL-60, starting at 2 h of incubation
Protocol: as §5
Because cross-links can be undetectable in the alkaline comet assay, a variant of this method including post-treatment with proteinase K (Cat no: P2308) was used. Proteinase K digests peptide bonds, releasing the cross-linked DNA […] the DNA-protein complexes without altering the structure of the DNA-DNA complexes to distinguish them. After lysis, the slides were washed three times in TE buffer (10 mM Tris, pH 10, 1 mM EDTA). The cells were treated with aliquots of proteinase K (60 µL per slide; 1 mg/mL TE buffer) for 1 h at 37 °C in a wet chamber. Further steps of the comet assay were performed as described above.

Row | Structure (SMILES) | IC50 (THP-1 cells [5]) [nM] | IC50 (HL-60 cells [6]) [nM] | IC50 (HMEC-1 cells) [nM] | IC50 (MOLT-4 cells) [nM] | cytotoxicity (in words) [4] | further results
1 | CC(NC(=O)[C@H](Cc1ccccc1)NC(=O)OCc1ccccc1)C(=O)CF (some centres unmarked) [Z-FA-FMK, reference compound] | – | – | – | – | – | caspase-3/7 level [1]: totally prevented caspase activation; caspase-3/7 level [2]: totally prevented caspase activation; caspase-3/7 level [3]: totally prevented caspase activation
2 | CS(=O)(=O)c1ccc(-c2cnc(N)c(C(=O)Nc3ccccc3)n2)cc1 [C+VE-821, reference compound] | – | – | – | – | – | dCK activity (dCK in MOLT-4 cells): decreased dCK activity; dCK activity (dCK in THP-1 cells): decreased dCK activity; effect of ATR inhibitor on cytotoxicity of CLA and derivatives ([4]; 10 μM VE-821 preincubation, XTT 48 h): reduces the cytotoxicity of all tested compounds; dCK activity (dCK in HL-60 cells): decreased dCK activity
3 | Nc1nc(Cl)nc2c1ncn2[C@H]1C[C@H](O)[C@@H](CO)O1 [CLA, cladribine, reference compound] | 56 | 246 | 126 | 103 | – | increase in γH2AX level (γH2AX in HL-60 cells): ~ 2.4 fold
4 | OC[C@H]1O[C@@H](n2cnc3c(N=CN4CCCCCC4)nc(Cl)nc32)C[C@@H]1O [CLA-FHEX] | 172 | 647 | 1080 | 348 | low cytotoxicity | –
5 | CN1CCN(C=Nc2nc(Cl)nc3c2ncn3[C@H]2C[C@H](O)[C@@H](CO)O2)CC1 [CLA-FPAZ] | 168 | 190 | 710 | 353 | low cytotoxicity | –
6 | CN(C)C=Nc1nc(Cl)nc2c1ncn2[C@H]1C[C@H](O)[C@@H](CO)O1 [CLA-FDMF, [6-deamino-6-(N′,N′-dimethyl formamidine)] cladribine] | 220 | 184 | 412 | 220 | low cytotoxicity | –
7 | OC[C@H]1O[C@@H](n2cnc3c(N=CN4CCCCC4)nc(Cl)nc32)C[C@@H]1O [CLA-FPIP, [6-deamino-6-(N′, N′-1′, 5′-pentamethylene formamidine)] cladribine] | 69 | 133 | 435 | 110 | high cytotoxic activity | caspase-3/7 level [1]: highest changes; DNA damage in the tail after proteinase K (THP-1 cells [7]): increased; DNA-protein cross-links after proteinase K (HL-60 cells [8]): increased the level of cross-links
